Test results: US9714936B2, “Method for evaluating cosmetic” (SHISEIDO COMPANY, LTD., priority 2011, dated 2017)

Tests used:
[1] = system: freeze-dried J-TEC Human Reconstituted Epidermis model (stratum corneum sheet); experiment: Transparency and transmittance of freeze-dried stratum corneum sheet after wetting and drying (FIG. 7); conditions: wetted 30 minutes, dried 18 hours at 34° C., 60% humidity
Description: The freeze-dried stratum corneum sheet was wetted for 30 minutes in a 10% glycerin aqueous solution, in an aqueous solution of liquid paraffin (10%), glycerin (10%), POE(60) hydrogenated castor oil (10%), carboxyvinyl polymer (product name: CARBOPOL 981 by Lubrizol Advanced Materials, Inc.) (0.2%) and KOH (0.1%) (liquid paraffin+glycerin+thickener aqueous solution), and in 100% ethanol, and after removing the liquid, drying was performed for 18 hours in an atmosphere at 34° C., 60% humidity, and the sheet was photographed (FIG. 7). […] Since higher transparency of the stratum corneum can be considered a more excellent skin condition, the state of improvement in skin can be evaluated based on the thickness change in the stratum corneum cells or cell layer from moistening in a liquid until drying.

[2] = system: J-TEC Human Reconstituted Epidermis Model (stratum corneum sheet); experiment: Change in stratum corneum sheet thickness on wetting and drying (Example 6)
Description: (§1) The thickness of a J-TEC Human Reconstituted Epidermis Model (stratum corneum sheet) before the experiment was measured with a caliper (Caliper No. 227-201 by Mitsutoyo Corp.) (one location each) (A). The stratum corneum sheet was further wetted for 30 minutes in a 10% glycerin aqueous solution, an aqueous solution of liquid paraffin (10%), glycerin (10%), POE(60) hydrogenated castor oil (10%), carboxyvinyl polymer (product name: CARBOPOL 981, Lubrizol Advanced Materials, Inc.) (0.2%) and KOH (0.1%) (liquid paraffin+glycerin+thickener aqueous solution), and in 100% ethanol, and immediately upon completion of wetting, the thickness of the stratum corneum sheet was measured with a caliper in the same manner (B).
(§2) It was further dried for 18 hours under conditions of 34° C., 60% humidity and the stratum corneum sheet was measured (C). Using theses results, the thickness change rate (%) of the stratum corneum sheet was measured based on the following formula 1: Thickness change rate (%)=(B−A)×100/A−(C−B)×100/C

[3] = system: J-TEC Human Reconstituted Epidermis Model (stratum corneum sheet); experiment: Visual examination of stratum corneum sheet transparency after wetting and drying (Example 6); conditions: visually examined after wetting 30 minutes and drying 18 hours at 34° C., 60% humidity
Description: as §1, §2

CCO [100% Ethanol, ethanol]
transparency of freeze-dried stratum corneum sheet moistened and then dried (FIG. 7) [1]: low | stratum corneum transmittance of freeze-dried sheet moistened and then dried (FIG. 7) ([1]; HR100 spectrophotometer): low | Thickness change rate (%) ([2]; (B−A)×100/A−(C−B)×100/C, wetted 30 minutes, dried 18 hours at 34° C., 60% humidity, caliper): 3.9% | change in thickness of stratum corneum sheet when moistened (FIG. 6) ([2]; after wetting with the liquid): no change in thickness | Transparency [3]: Poor
